Results: publication PMC8632988, “Inhibition of SYK and cSrc kinases can protect bone and cartilage in preclinical models of osteoarthritis and rheumatoid arthritis” (Scientific Reports, 2021)

What was measured:
Experiment in all cases: Kinase selectivity profile assay
Assay type in all cases: biochemical
CDK16/cyclin Y = biological target: T1, CDK16/cyclin Y (Homo sapiens, UniProt Q00536); conditions: 500 nM; relative to DMSO; read-out: Residual enzymatic activity
T1 construct: purchased Reaction Biology Corporation
Procedure: (§1) The activity of MT-SYK-03 against cSrc kinase and selectivity profile towards other 341 kinases was determined at Reaction Biology Corporation (Malvern, PA, USA) using the standard kinase assay protocol. […]; unbound phosphate was removed by extensive washing of filters in phosphoric acid. Kinase activity data was expressed as the percent remaining kinase activity in test samples compared to vehicle (dimethyl sulfoxide) reactions based on the radioactivity of reaction products (see Table S2). Experiment was replicated twice.

LIMK2 = biological target: T2, LIMK2 (Homo sapiens, UniProt P53671); conditions: 500 nM; relative to DMSO; read-out: Residual enzymatic activity
T2 construct: purchased Reaction Biology Corporation
Procedure: as §1

P38g = biological target: T3, P38g (Homo sapiens, UniProt P53778); conditions: 500 nM; relative to DMSO; read-out: Residual enzymatic activity
T3 construct: purchased Reaction Biology Corporation
Procedure: as §1

NEK5 = biological target: T4, NEK5 (Homo sapiens, UniProt Q6P3R8); conditions: 500 nM; relative to DMSO; read-out: Residual enzymatic activity
T4 construct: purchased Reaction Biology Corporation
T4 sequence (Q6P3R8 whole entry): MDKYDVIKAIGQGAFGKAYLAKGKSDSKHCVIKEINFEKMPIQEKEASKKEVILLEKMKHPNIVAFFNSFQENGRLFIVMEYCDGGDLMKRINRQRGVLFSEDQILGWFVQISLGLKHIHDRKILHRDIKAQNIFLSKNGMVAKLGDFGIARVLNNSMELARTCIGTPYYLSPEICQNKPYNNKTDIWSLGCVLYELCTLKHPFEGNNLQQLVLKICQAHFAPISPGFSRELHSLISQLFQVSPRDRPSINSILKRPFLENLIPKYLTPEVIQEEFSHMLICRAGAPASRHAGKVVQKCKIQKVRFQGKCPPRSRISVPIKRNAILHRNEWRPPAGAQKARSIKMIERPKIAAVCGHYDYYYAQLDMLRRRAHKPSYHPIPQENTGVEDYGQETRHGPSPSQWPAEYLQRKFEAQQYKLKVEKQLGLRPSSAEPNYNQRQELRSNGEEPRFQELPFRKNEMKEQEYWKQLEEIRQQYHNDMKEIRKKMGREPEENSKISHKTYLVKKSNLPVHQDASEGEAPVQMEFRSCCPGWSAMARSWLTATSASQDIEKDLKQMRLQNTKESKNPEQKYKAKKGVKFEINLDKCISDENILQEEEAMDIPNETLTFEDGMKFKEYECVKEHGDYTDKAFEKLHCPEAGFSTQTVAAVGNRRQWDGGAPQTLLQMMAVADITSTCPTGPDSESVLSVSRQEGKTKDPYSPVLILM
Procedure: as §1

HCK = biological target: T5, HCK (Homo sapiens, UniProt P08631)
T5 construct: purchased Reaction Biology Corporation (assay service)
T5 sequence (P08631 whole entry): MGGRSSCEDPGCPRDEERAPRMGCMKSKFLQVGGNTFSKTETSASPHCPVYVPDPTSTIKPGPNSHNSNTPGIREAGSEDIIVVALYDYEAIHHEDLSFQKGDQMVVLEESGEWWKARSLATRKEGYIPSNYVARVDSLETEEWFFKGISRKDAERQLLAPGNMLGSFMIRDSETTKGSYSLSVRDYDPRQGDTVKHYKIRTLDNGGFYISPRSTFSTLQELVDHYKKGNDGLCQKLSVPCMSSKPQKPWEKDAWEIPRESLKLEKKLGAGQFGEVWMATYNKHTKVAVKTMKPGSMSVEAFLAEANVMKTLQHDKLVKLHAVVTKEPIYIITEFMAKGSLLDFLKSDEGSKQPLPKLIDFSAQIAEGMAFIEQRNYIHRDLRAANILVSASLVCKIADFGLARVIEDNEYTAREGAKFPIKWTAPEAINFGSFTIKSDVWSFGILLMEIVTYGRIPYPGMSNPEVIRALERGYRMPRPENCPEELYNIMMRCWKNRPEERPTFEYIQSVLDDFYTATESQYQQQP
Procedure: as §1

DYRK2 = biological target: T6, DYRK2 (Homo sapiens, UniProt Q92630); conditions: 500 nM; relative to DMSO; read-out: Residual enzymatic activity
T6 construct: purchased Reaction Biology Corporation
Procedure: as §1

JAK3 = biological target: T7, JAK3 (Homo sapiens, UniProt P52333); conditions: 500 nM; relative to DMSO; read-out: Residual enzymatic activity
T7 construct: purchased Reaction Biology Corporation
Procedure: as §1

AKT1 = biological target: T8, AKT1 (Homo sapiens, UniProt P31749); conditions: 500 nM; relative to DMSO; read-out: Residual enzymatic activity
T8 construct: purchased Reaction Biology Corporation
Procedure: as §1

ALK1/ACVRL1 = biological target: T9, ALK1/ACVRL1 (Homo sapiens, UniProt P37023); conditions: 500 nM; relative to DMSO; read-out: Residual enzymatic activity
T9 construct: purchased Reaction Biology Corporation
Procedure: as §1

RSK3 = biological target: T10, RSK3 (Homo sapiens, UniProt Q15349); conditions: 500 nM; relative to DMSO; read-out: Residual enzymatic activity
T10 construct: purchased Reaction Biology Corporation
Procedure: as §1

MAPKAPK2 = biological target: T11, MAPKAPK2 (Homo sapiens, UniProt P49137); conditions: 500 nM, relative to DMSO
T11 construct: purchased Reaction Biology Corporation
T11 sequence (P49137 whole entry): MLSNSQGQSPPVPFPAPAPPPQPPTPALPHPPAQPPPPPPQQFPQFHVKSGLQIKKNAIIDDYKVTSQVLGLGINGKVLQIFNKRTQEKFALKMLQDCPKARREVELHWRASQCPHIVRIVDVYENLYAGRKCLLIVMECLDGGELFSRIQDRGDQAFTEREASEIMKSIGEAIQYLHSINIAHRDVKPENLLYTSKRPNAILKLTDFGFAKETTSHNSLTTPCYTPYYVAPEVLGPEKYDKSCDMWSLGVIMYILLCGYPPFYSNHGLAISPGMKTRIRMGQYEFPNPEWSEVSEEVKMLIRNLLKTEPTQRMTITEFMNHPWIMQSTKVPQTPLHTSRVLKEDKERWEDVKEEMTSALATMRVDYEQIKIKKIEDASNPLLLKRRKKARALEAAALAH
Procedure: as §1

CAMK2g = biological target: T12, CAMK2g (Homo sapiens, UniProt Q13555); conditions: 500 nM; relative to DMSO; read-out: Residual enzymatic activity
T12 construct: purchased Reaction Biology Corporation
T12 sequence (Q13555 whole entry): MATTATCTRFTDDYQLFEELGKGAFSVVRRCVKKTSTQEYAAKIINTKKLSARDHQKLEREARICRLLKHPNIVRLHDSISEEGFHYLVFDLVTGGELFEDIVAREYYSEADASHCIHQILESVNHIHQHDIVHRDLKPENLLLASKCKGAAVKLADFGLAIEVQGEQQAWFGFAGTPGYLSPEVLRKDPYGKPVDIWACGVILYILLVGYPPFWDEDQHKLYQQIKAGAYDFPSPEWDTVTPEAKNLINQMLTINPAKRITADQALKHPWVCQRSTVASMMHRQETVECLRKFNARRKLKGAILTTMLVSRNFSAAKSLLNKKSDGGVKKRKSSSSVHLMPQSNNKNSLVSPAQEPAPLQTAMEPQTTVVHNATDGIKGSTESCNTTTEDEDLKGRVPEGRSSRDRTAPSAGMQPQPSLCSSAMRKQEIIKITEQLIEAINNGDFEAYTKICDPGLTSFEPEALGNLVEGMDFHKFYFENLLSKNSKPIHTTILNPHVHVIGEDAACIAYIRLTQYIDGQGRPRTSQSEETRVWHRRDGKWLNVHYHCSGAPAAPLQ
Procedure: as §1

DMPK2 = biological target: T13, DMPK2 (Homo sapiens, UniProt Q6DT37); conditions: 500 nM; relative to DMSO; read-out: Residual enzymatic activity
T13 construct: purchased Reaction Biology Corporation
Procedure: as §1

FGFR4 = biological target: T14, FGFR4 (Homo sapiens, UniProt P22455); conditions: 500 nM; relative to DMSO
T14 construct: purchased Reaction Biology Corporation
Procedure: as §1

ULK3 = biological target: T15, ULK3 (Homo sapiens, UniProt Q6PHR2); conditions: 500 nM; relative to DMSO; read-out: Residual enzymatic activity
T15 construct: purchased Reaction Biology Corporation
Procedure: as §1

MNK2 = biological target: T16, MNK2 (Homo sapiens, UniProt Q9HBH9); conditions: 500 nM; relative to DMSO; read-out: Residual enzymatic activity
T16 construct: purchased Reaction Biology Corporation
Procedure: as §1

PKCd = biological target: T17, PKCd (Homo sapiens, UniProt Q05655); conditions: 500 nM; relative to DMSO; read-out: Residual enzymatic activity
T17 construct: purchased Reaction Biology Corporation
Procedure: as §1

CLK2 = biological target: T18, CLK2 (Homo sapiens, UniProt P49760); conditions: 500 nM; relative to DMSO; read-out: Residual enzymatic activity
T18 construct: purchased Reaction Biology Corporation
T18 sequence (P49760 whole entry): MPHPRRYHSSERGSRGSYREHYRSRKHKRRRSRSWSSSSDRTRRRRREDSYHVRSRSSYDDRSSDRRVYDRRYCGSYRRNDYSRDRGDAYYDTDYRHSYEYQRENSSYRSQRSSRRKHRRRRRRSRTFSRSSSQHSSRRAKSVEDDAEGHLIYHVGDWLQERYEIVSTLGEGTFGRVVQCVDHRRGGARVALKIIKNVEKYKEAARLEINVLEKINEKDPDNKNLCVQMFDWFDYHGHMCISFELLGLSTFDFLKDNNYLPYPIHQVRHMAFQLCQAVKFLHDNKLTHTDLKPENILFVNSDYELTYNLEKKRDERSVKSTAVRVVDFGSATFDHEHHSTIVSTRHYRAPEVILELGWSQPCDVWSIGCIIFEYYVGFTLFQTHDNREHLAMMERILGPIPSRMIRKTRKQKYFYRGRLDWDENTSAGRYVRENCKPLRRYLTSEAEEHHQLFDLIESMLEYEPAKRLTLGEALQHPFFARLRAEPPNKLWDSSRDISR
Procedure: as §1

DDR2 = biological target: T19, DDR2 (Homo sapiens, UniProt Q16832); conditions: 500 nM; relative to DMSO; read-out: Residual enzymatic activity
T19 construct: purchased Reaction Biology Corporation
Procedure: as §1

LYN = biological target: T20, LYN (Homo sapiens, UniProt P07948)
T20 construct: purchased Reaction Biology Corporation (assay service)
T20 sequence (P07948 whole entry): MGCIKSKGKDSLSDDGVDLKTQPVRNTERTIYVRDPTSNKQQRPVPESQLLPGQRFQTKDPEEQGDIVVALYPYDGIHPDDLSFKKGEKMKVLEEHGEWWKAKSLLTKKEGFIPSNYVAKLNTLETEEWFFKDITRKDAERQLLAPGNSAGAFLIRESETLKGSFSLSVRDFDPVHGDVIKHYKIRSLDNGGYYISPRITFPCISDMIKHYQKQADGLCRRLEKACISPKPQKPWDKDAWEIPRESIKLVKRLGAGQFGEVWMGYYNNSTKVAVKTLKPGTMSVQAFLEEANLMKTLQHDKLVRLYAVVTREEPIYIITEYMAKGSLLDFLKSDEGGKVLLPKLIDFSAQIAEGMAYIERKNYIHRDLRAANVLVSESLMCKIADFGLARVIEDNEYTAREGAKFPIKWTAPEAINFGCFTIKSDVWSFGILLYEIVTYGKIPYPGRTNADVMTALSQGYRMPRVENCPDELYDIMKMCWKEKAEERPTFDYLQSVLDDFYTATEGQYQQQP
Procedure: as §1

TNIK = biological target: T21, TNIK (Homo sapiens, UniProt Q9UKE5); conditions: 500 nM; relative to DMSO; read-out: Residual enzymatic activity
T21 construct: purchased Reaction Biology Corporation
T21 sequence (Q9UKE5 whole entry): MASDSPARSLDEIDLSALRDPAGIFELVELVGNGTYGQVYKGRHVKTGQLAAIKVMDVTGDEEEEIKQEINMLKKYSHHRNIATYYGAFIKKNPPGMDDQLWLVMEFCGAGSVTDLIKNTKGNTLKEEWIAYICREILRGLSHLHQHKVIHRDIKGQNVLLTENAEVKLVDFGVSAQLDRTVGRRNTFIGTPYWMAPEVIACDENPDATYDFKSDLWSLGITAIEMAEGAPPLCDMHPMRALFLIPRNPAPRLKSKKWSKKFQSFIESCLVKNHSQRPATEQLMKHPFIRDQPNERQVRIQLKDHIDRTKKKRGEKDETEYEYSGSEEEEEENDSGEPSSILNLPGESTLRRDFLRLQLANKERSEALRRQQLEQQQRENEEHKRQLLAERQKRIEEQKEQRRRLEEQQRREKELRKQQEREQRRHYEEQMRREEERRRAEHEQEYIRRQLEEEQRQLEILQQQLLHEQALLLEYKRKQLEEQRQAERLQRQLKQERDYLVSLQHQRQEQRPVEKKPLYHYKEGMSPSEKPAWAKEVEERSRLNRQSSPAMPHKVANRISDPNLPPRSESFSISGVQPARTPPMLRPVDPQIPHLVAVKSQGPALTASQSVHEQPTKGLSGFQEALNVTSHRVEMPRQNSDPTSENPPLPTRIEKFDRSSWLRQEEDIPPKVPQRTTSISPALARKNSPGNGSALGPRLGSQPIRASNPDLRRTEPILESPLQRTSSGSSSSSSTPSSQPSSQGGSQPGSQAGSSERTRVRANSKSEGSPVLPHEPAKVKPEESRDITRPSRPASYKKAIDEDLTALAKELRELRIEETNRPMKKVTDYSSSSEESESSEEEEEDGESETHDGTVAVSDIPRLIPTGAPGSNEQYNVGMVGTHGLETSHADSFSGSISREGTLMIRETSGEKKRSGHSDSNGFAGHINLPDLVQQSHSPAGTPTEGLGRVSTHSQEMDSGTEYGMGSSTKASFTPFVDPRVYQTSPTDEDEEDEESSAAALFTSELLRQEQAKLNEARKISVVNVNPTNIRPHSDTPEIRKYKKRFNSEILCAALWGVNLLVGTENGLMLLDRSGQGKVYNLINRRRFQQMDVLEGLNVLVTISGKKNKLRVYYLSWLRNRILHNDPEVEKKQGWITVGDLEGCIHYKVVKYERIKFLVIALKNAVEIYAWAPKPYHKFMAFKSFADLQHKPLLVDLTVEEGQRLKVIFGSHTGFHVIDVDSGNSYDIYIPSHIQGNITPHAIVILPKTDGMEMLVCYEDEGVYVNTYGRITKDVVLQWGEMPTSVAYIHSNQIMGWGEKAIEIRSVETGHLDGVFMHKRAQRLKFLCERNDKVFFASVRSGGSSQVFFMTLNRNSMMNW
Procedure: as §1

c-MET = biological target: T22, c-MET (Homo sapiens, UniProt P08581); conditions: 500 nM; relative to DMSO; read-out: Residual enzymatic activity
T22 construct: purchased Reaction Biology Corporation
Procedure: as §1

PIM2 = biological target: T23, PIM2 (Homo sapiens, UniProt Q9P1W9); conditions: 500 nM; relative to DMSO; read-out: Residual enzymatic activity
T23 construct: purchased Reaction Biology Corporation
Procedure: as §1

PRKX = biological target: T24, PRKX (Homo sapiens, UniProt P51817); conditions: 500 nM; relative to DMSO; read-out: Residual enzymatic activity
T24 construct: purchased Reaction Biology Corporation
Procedure: as §1

MST1/STK4 = biological target: T25, MST1/STK4 (Homo sapiens, UniProt Q13043); conditions: 500 nM; relative to DMSO; read-out: Residual enzymatic activity
T25 construct: purchased Reaction Biology Corporation
Procedure: as §1

ALK = biological target: T26, ALK (Homo sapiens, UniProt Q9UM73); conditions: 500 nM; relative to DMSO; read-out: Residual enzymatic activity
T26 construct: purchased Reaction Biology Corporation
Procedure: as §1

TAOK2/TAO1 = biological target: T27, TAOK2/TAO1 (Homo sapiens, UniProt Q9UL54); conditions: 500 nM; relative to DMSO; read-out: Residual enzymatic activity
T27 construct: purchased Reaction Biology Corporation
Procedure: as §1

MEKK2 = biological target: T28, MEKK2 (Homo sapiens, UniProt Q9Y2U5); conditions: 500 nM; relative to DMSO; read-out: Residual enzymatic activity
T28 construct: purchased Reaction Biology Corporation
Procedure: as §1

MST4 = biological target: T29, MST4 (Homo sapiens, UniProt Q9P289); conditions: 500 nM; relative to DMSO; read-out: Residual enzymatic activity
T29 construct: purchased Reaction Biology Corporation
T29 sequence (Q9P289 whole entry): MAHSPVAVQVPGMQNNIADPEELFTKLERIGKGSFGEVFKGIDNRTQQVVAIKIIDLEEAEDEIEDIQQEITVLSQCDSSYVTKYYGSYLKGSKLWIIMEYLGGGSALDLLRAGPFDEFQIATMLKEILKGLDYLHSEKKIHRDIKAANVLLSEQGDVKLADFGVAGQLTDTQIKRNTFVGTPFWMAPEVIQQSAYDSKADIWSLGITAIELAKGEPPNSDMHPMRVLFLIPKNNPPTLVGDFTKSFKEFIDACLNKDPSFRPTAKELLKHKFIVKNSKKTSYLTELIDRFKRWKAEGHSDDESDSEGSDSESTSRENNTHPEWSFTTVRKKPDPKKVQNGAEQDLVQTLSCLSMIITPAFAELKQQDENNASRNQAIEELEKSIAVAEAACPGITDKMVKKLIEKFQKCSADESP
Procedure: as §1

MEK3 = biological target: T30, MEK3 (Homo sapiens, UniProt P46734); conditions: 500 nM; relative to DMSO; read-out: Residual enzymatic activity
T30 construct: purchased Reaction Biology Corporation
Procedure: as §1

PDK1/PDPK1 = biological target: T31, PDK1/PDPK1 (Homo sapiens, UniProt O15530); conditions: 500 nM; relative to DMSO; read-out: Residual enzymatic activity
T31 construct: purchased Reaction Biology Corporation
Procedure: as §1

PLK1 = biological target: T32, PLK1 (Homo sapiens, UniProt P53350); conditions: 500 nM; relative to DMSO; read-out: Residual enzymatic activity
T32 construct: purchased Reaction Biology Corporation
Procedure: as §1

CTK/MATK = biological target: T33, CTK/MATK (Homo sapiens, UniProt P42679); conditions: 500 nM; relative to DMSO; read-out: Residual enzymatic activity
T33 construct: purchased Reaction Biology Corporation
Procedure: as §1

NEK9 = biological target: T34, NEK9 (Homo sapiens, UniProt Q8TD19); conditions: 500 nM; relative to DMSO; read-out: Residual enzymatic activity
T34 construct: purchased Reaction Biology Corporation
Procedure: as §1

MYLK3 = biological target: T35, MYLK3 (Homo sapiens, UniProt Q32MK0); conditions: 500 nM; relative to DMSO; read-out: Residual enzymatic activity
T35 construct: purchased Reaction Biology Corporation
Procedure: as §1

LCK2/ICK = biological target: T36, LCK2/ICK (Homo sapiens, UniProt Q9UPZ9); conditions: 500 nM; relative to DMSO; read-out: Residual enzymatic activity
T36 construct: purchased Reaction Biology Corporation
Procedure: as §1

ERBB4/HER4 = biological target: T37, ERBB4/HER4 (Homo sapiens, UniProt Q15303); conditions: 500 nM; relative to DMSO; read-out: Residual enzymatic activity
T37 construct: purchased Reaction Biology Corporation
Procedure: as §1

CLK4 = biological target: T38, CLK4 (Homo sapiens, UniProt Q9HAZ1); conditions: 500 nM; relative to DMSO; read-out: Residual enzymatic activity
T38 construct: purchased Reaction Biology Corporation
Procedure: as §1

WNK1 = biological target: T39, WNK1 (Homo sapiens, UniProt Q9H4A3); conditions: 500 nM; relative to DMSO; read-out: Residual enzymatic activity
T39 construct: purchased Reaction Biology Corporation
Procedure: as §1

CDK2/Cyclin A1 = biological target: T40, CDK2/Cyclin A1 (Homo sapiens, UniProt P24941); conditions: 500 nM; relative to DMSO; read-out: Residual enzymatic activity
T40 construct: purchased Reaction Biology Corporation
Procedure: as §1

[1] = 500 nM, relative to DMSO, read-out: Residual enzymatic activity
[2] = 10-dose mode, threefold serial dilution from 10 μM

## COc1cc(Nc2ncnc(Nc3cc4c(cn3)NC(=O)C(C)(C)O4)n2)cc(OC)c1OC [MT-SYK-03]
CDK16/cyclin Y
  remaining activity at 0.5 µM: 95.8%
LIMK2
  remaining activity at 0.5 µM: 84.9%
P38g
  remaining activity at 0.5 µM: 101%
NEK5
  remaining activity at 0.5 µM: 63.6%
HCK; [1]
  remaining activity at 0.5 µM: 26.3%
HCK; [2]
  IC50: 53.7 nM
DYRK2
  remaining activity at 0.5 µM: 104%
JAK3
  remaining activity at 0.5 µM: 74.7%
AKT1
  remaining activity at 0.5 µM: 101%
ALK1/ACVRL1
  remaining activity at 0.5 µM: 126%
RSK3
  remaining activity at 0.5 µM: 91.6%
MAPKAPK2
  Residual enzymatic activity: did not inhibit any
MAPKAPK2; read-out: Residual enzymatic activity
  remaining activity at 0.5 µM: 101%
CAMK2g
  remaining activity at 0.5 µM: 100%
DMPK2
  remaining activity at 0.5 µM: 96.4%
FGFR4
  Residual enzymatic activity: 95.7%
ULK3
  remaining activity at 0.5 µM: 74.9%
MNK2
  remaining activity at 0.5 µM: 78.6%
PKCd
  remaining activity at 0.5 µM: 110%
CLK2
  remaining activity at 0.5 µM: 94.5%
DDR2
  remaining activity at 0.5 µM: 69%
LYN; [1]
  remaining activity at 0.5 µM: 12.5%
LYN; [2]
  IC50: 8.8 nM
LYN; read-out: Inhibition at 500 nM
  inhibition at 0.5 µM: > 90%
TNIK
  remaining activity at 0.5 µM: 78.6%
c-MET
  remaining activity at 0.5 µM: 108%
PIM2
  remaining activity at 0.5 µM: 97.2%
PRKX
  remaining activity at 0.5 µM: 115%
MST1/STK4
  remaining activity at 0.5 µM: 94.2%
ALK
  remaining activity at 0.5 µM: 96.5%
TAOK2/TAO1
  remaining activity at 0.5 µM: 105%
MEKK2
  remaining activity at 0.5 µM: 106%
MST4
  remaining activity at 0.5 µM: 112%
MEK3
  remaining activity at 0.5 µM: 119%
PDK1/PDPK1
  remaining activity at 0.5 µM: 85.5%
PLK1
  remaining activity at 0.5 µM: 93.4%
CTK/MATK
  remaining activity at 0.5 µM: 96.6%
NEK9
  remaining activity at 0.5 µM: 55.7%
MYLK3
  remaining activity at 0.5 µM: 95.9%
LCK2/ICK
  remaining activity at 0.5 µM: 110%
ERBB4/HER4
  remaining activity at 0.5 µM: 79.4%
CLK4
  remaining activity at 0.5 µM: 88.7%
WNK1
  remaining activity at 0.5 µM: 106%
CDK2/Cyclin A1
  remaining activity at 0.5 µM: 90.7%
